The source of these data is patent US4831029A, “Condensed cyclic triazole derivatives, pharmaceutical compositions and use” (priority 1986, dated 1989).

Structures can show the parent of a compound that is named as a salt.

Holding throughout (assay type): in vivo
A short description of data set [1]: Yohimbine potentiating effect. As for the experimental part:
The yohimbine potentiating effect is determined by the method of R. M. Quinton: Brit. […] Scand.

Data set [2] is described as follows: Spasmolytic effect (inhibition of tetracor spasms). The settings on record: for ED50: inhibition of tetracor spasms. The source says: (§1) The following test methods are used: Motility inhibition test: J. Borsy, E. Csanyi, J. Lazar: J. Arch. Int. Pharmacodyn. 124, 1-2 (1960); Inhibition of tetracor spasms: R. Benzinger, D. Hane: Arch. Int Pharmacodyn. 167, 245-249 (1967).

Data set [3] is described as follows: Motility inhibiting effect. The settings on record: for Motility inhibiting effect T.I. (therapeutical index): motility inhibition; for ED50: read-out: Motility inhibiting effect ED50.
Text: as §1

Data set [4] can be described thus: Hexobarbital narcosis potentiating effect. The note with it: for Hexobarbital narcosis potentiating effect T.I. (therapeutical index): narcosis potentiation; for ED50: positive = narcosis time lengthened to at least 2.5-fold of control. As for the experimental part:
In the hexobarbital narcosis potentiating test those animals are regarded as showing positive reaction in which the average narcosis time is lengthened to at least 2.5-fold of that of the control group.
The ED50 values are calculated from the data thus transformed.

For orientation: ED50 means the dose at which the effect has come halfway, by size or by number of responders.

Turning to `CN(C)CCC=C1c2ccccc2CCc2ccccc21` [Amitriptilin, reference compound], the ED50 in data set [1] (method of Quinton, read-out: Yohimbin potentiating effect ED50) worked out at 12.5 mg/kg.

For the molecule `O=c1c2c(n(CCN3CCCCC3)c3nc(N4CCOCC4)nn13)CCN(Cc1ccccc1)C2` [Example 18, 7-Benzyl-2-morpholino-10-(2-piperidinoethyl)-6,7,8,9-tetrahydro-pyrido[4,3-d]-1,2,4-triazolo[1,5-a]pyrimidine-5(10H)-one], in data set [2], the “Spasmolytic effect T.I. (therapeutical index)” value came to 6.6 and the ED50 is 150 mg/kg.

`CN(C)CCCn1c2c(c(=O)n3nc(N4CCOCC4)nc13)CCN(Cc1ccccc1)C2` [Example 19, 8-Benzyl-10-(3-dimethylaminopropyl)-2-morpholino-6,7,8,9-tetrahydro-pyrido[3,4-d]-1,2,4-triazolo[1,5-a]pyrimidine-5(10H)-one]: the “Motility inhibiting effect T.I. (therapeutical index)” value in data set [3] worked out at 6.0. Besides, the ED50 in data set [3] (motility inhibition test) and in data set [4] was 200 mg/kg throughout. Also, the “Hexobarbital narcosis potentiating effect T.I. (therapeutical index)” value in data set [4] is given as 6.0.

Take `O=c1c2c(n(CCN3CCCCC3)c3nc(N4CCOCC4)nn13)CN(Cc1ccccc1)CC2` [Example 19c, 8-Benzyl-2-morpholino-10-(2-piperidino-ethyl)-6,7,8,9-tetrahydro-pyrido[3,4-d]-1,2,4-triazolo[1,5-a]pyrimidine-5(10H)-one]: in data set [2], the “Spasmolytic effect T.I. (therapeutical index)” value came out at 6.7 and the ED50 came to 150 mg/kg. For the same molecule, the “Yohimbin potentiating effect T.I. (therapeutical index)” value in data set [1] (T.I.=therapeutical index, yohimbine potentiation) stood at 47.

`CSc1nc2n(CCCN3CCOCC3)c3c(c(=O)n2n1)CN(Cc1ccccc1)CC3` [Example 19g, 7-Benzyl-2-methylthio-10-(3-morpholino-propyl)-6,7,8,9-tetrahydro-pyrido[4,3-d]-1,2,4-triazolo[1,5-a]pyrimidine-5(10H)-one fumarate]: in data set [2], the “Spasmolytic effect T.I. (therapeutical index)” value worked out at 8.5 and the ED50 amounted to 100 mg/kg.

Consider `O=c1c2c(n(CCN3CCCC3)c3nc(N4CCOCC4)nn13)CN(Cc1ccccc1)CC2` [Example 20, 8-Benzyl-2-morpholino-10-(2-pyrrolidinoethyl)-6,7,8,9-tetrahydro-pyrido[3,4-d]-1,2,4-triazolo[1,5-a]pyrimidine-5(10H)-one], for which, in data set [2], the “Spasmolytic effect T.I. (therapeutical index)” value is 6.5 and it took a dose of 155 mg/kg to reach the 50% effect level (ED50).

Consider `CCCC(C)(COC(N)=O)COC(N)=O` [Meprobamat, reference compound], for which, in data set [3], the “Motility inhibiting effect T.I. (therapeutical index)” value worked out at 4.1 and the ED50 amounted to 270 mg/kg. For the same molecule, in data set [4], the “Hexobarbital narcosis potentiating effect T.I. (therapeutical index)” value was 4.1 and the ED50 was found to be 260 mg/kg.

For the molecule `CN1C(=O)OC(C)(C)C1=O` [Trimetadion, reference compound], in data set [2], the 50% effect level (ED50) was put at a dose of 490 mg/kg.
